# Laboratory results taken from patent US20260265176A1, “SUBSTITUTED CYCLOHEXENE AND CYCLOHEXANE INHIBITORS OF ORNITHINE AMINOTRANSFERASE” (Northwestern University, priority 2023, published 2026).
# Legend:
# Format in all cases: biochemical
# [1] = target: T1, hOAT (Homo sapiens, UniProt P04181); assay: Inactivation of hOAT, coupled enzyme assay (kinetic constants); conditions: for kinact / kinact/K1, hOAT / Ki: inactivation of hOAT; for Ki: read-out: K1, hOAT
# T1 construct: made in house; host or cells: Escherichia coli BL21 (DE3)
# T1 sequence (P04181 26-439): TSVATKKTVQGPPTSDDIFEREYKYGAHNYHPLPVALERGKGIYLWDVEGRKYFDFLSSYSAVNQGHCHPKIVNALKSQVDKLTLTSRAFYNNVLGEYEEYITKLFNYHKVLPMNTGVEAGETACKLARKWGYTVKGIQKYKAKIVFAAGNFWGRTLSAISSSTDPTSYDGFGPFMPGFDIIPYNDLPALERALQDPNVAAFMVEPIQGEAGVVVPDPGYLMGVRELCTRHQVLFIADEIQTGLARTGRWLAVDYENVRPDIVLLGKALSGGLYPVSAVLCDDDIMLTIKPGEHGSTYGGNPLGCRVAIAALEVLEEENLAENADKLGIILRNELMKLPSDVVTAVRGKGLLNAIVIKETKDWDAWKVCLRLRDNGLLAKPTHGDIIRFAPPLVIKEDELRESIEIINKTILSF
# Description: (§1) Recombinant human brain γ-aminobutyric acid aminotransferase (hGABA-AT) was expressed and purified according to literature procedures with slight modifications.^26 Briefly, pelleted Expi293 cells were resuspended into buffer A containing 50 mM K4O7P2 pH 8.6, 300 mM NaCl, and 100 μM PLP. The suspension was lysed using four repeat cycles of sonication (10 s on, 10 s off, 20% amplitude) on ice followed by the addition of 12.5 mM MgCl, 125 μM CaCl, and 5 mg of lyophilized DNase I. The lysate incubated on ice for 60 minutes with periodic inversions followed by a two step centrifugation procedure to pellet cell debris. Step one included centrifugation at 18000 rpm for 60 minutes at 4° C. followed by the collection of supernatant and a secondary step at 20000 rpm for 45 minutes. The supernatant was collected, and the sample was loaded into a disposable 0.45 μm bottle-top vacuum filter system to remove remaining cell debris. The resulting sample was then loaded onto a Co^2+ immobilized metal affinity chromatography column pre-equilibrated with buffer A. The column was washed with 40 mL of buffer A before hGABA-AT was eluted using a step-wise elution gradient of buffer A supplemented with 200 mM imidazole. The step-wise gradient totaled 5 steps of increasing imidazole concentration (1 mM, 2 mM, 5 mM, 100 mM, 200 mM). Individual 4 mL fractions containing hGABA-AT were combined and concentrated to a volume of 3 mL using a 30000 Da molecular weight cutoff (MWCO) Amicon Ultra centrifugal filter device. For further purification, the sample was loaded onto a HiLoad Superdex-200PG column (16 mm×600 mm) pre-equilibrated with buffer A and subjected to size exclusion chromatography at a flow rate of 0.25 mL/min. PYCR1 was purified according to previously published protocols.^38 Coupled enzyme assays for hGABA-AT, hOAT, Ala-AT, and Asp-AT were carried out according to previous procedures.^26
# [2] = target: T2, hGABA-AT (Homo sapiens, UniProt P80404); assay: Inactivation of hGABA-AT, coupled enzyme assay (kinetic constants); conditions: for kinact/K1, hGABA-AT: inactivation of hGABA-AT, K1 and kinact not determinable
# T2 construct: made in house; host or cells: Expi293 cells
# Description: as §1
# [3] = target: T1, hOAT; assay: Time-dependent reactivation experiment (dialysis) of hOAT inactivated by 17
# Description: Mass spectrometry, however, might differentiate those possibilities. To confirm irreversible inactivation of hOAT by 17, a time-dependent reactivation experiment (dialysis) was performed. […] Aliquots at different time intervals were collected and assayed to detect restored enzyme activity. […] It takes approximately 10 equiv of 17, however, to produce complete enzyme inactivation.
# The dialysis experiment was conducted using previous protocols.^26,38
# [4] = target: T1, hOAT; assay: Partition ratio / turnover number by titration of hOAT with inactivator; conditions: for partition ratio: turnover number minus one
# From the text: Determination of the Turnover Mechanism to Metabolites The partition ratio of an MBI is the ratio of compound that acts as a substrate relative to the compound that inactivates the enzyme. Ideally, plotting the enzyme activity remaining after inactivation versus equivalents of compound added will provide a straight line from 100 to 0% enzyme activity remaining. The x-intercept of this line would give the number of inactivator molecules required to inactivate a single enzyme active site (the turnover number). This number represents the total number of compound molecules that were engaged by the active site until the enzyme was inactivated. Of these compounds, only the final one will inactivate the enzyme, and the others will have been consumed as substrates. As a result, the partition ratio is the turnover number minus one (assuming a 1:1 stoichiometry of inactivator to enzyme in the inactivated complex).
# The partition ratio of 17 was determined by titrating a known amount of hOAT with varying equivalents of inactivator (FIG. 7). The linear relationship of the remaining enzymatic activity was extrapolated to yield the exact number of equivalents of 17 to inactivate the enzyme completely. From this we determined the turnover number to be 4.27 and thus the partition ratio of 17 to be 3.27.
# The turnover number for 17 was determined to be 2.2 by titrating a fixed amount of hOAT with varying equivalents of 17, measuring the remaining enzyme activities for the different equivalents of inhibitor, and employing the method of Pham et al.^32 (FIG. 24). The partition ratio, therefore, is 1.2.
# The partition ratio was calculated using previous protocols.^26,28
# [5] = target: T1, hOAT; assay: Transient-state stopped-flow spectrophotometry of hOAT reacting with inactivator; conditions: hyperbolic fit of kobs vs inactivator concentration, hOAT 17 μM, 20° C.
# Description: Vertical arrows indicate the sequence of the observed spectra after initiating the experiment. […] A sample of hOAT (17 μM) was mixed with 17 (0-11 mM) using a stopped-flow spectrophotometer, and the reaction was observed between 300 and 800 nm for 150 sec using CCD detection. Several representative spectra from the data set are shown here.
# FIG. 16C depicts the dependence of observed rate constants on the concentration of [5]. Fitting to a rectangular hyperbolic function (kobs=klimit[5]/K[5]+[5] returned an observed limiting rate constant of 0.20±0.01 s^−1 and a dissociation constant for reversible formation of the external aldimine of 2.9±0.4 mM.
# The data collected using stopped-flow spectrophotometry serves as additional evidence for the proposed mechanism. […]
# The subsequent increase in absorbance at 325 nm would thus report the accumulation of both the turnover and inhibition products, with no difference in rates.
# Transient-State Kinetic Characterization of hOAT with […]: A sample of hOAT (17 μM) was mixed with 17 (0-11 mM) at 20° C. using a rapid mixing stopped-flow spectrophotometer (TgK Scientific) equipped with charge-coupled device (CCD) detection, allowing for the collection time-resolved spectra. […] A reconstructed time zero point was included in the data and was obtained by adding the spectrum of the enzyme and the spectrum of the inhibitor when measured separately. […]
# [6] = listed as (±) 22, hydrochloride
# [7] = from turnover number/partition ratio study, FIG. 24
# T2 sequence (P80404 29-500): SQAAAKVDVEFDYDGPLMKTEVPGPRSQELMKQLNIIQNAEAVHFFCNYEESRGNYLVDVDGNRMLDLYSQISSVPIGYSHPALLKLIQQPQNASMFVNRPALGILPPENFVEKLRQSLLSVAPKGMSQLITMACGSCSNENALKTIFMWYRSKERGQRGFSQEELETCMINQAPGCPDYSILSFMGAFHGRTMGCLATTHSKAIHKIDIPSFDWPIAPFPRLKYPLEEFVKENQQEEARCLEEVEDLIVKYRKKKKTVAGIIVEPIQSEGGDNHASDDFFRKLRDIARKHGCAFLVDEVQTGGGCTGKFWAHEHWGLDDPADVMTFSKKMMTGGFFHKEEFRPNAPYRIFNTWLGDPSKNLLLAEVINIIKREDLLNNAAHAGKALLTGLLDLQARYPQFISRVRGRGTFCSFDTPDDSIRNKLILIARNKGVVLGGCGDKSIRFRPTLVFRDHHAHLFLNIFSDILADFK
Compound,inhibition of hOAT (in words) ([1]; hydrochloride),"inhibition of hOAT (in words) [1, 6]",inhibition of hGABA-AT (in words) ([2]; hydrochloride),"inhibition of hGABA-AT (in words) [2, 6]",kinact [1] [s⁻¹],"kinact/K1, hOAT [1] [M⁻¹ s⁻¹]",Ki [1] [µM],kinact/KI ([1]; read-out: overall efficiency (kinact/KI) against hOAT (converted)) [M⁻¹ s⁻¹],"kinact/K1, hGABA-AT [2] [M⁻¹ s⁻¹]","enzymatic activity recovered after dialysis ([3]; 72 hours of dialysis, hOAT treated with 0.6-10 equivalents of 17)",equivalents needed to produce complete enzyme inactivation ([3]; hOAT),"share of compound undergoing turnover to a product and PMP [4, 7] [%]","share of turnover resulting in inactivation [4, 7] [%]","turnover number ([4]; linear extrapolation of remaining activity, FIG. 7)","turnover number ([4]; method of Pham et al., FIG. 24)",partition ratio ([4]; FIG. 7),partition ratio ([4]; FIG. 24),observed limiting rate constant [5] [s⁻¹],Kd ([5]; read-out: dissociation constant for reversible formation of the external aldimine) [µM],"kinact/KI, fold less effective than that of 17 for hOAT ([1]; relative to 17) [fold]"
"Cl.N[C@@H]1C[C@H](C(=O)O)CC(F)(F)C1 (racemic) [(±)22, cis-5-Amino-3,3-difluorocyclohexane-1-carboxylic acid hydrochloride]",No inhibition up to 10 mM,little or no inhibitory effect,Weak reversible inhibition at 10 mM,little or no inhibitory effect,–,–,–,–,–,–,–,–,–,–,–,–,–,–,–,–
"Cl.N[C@H]1C=C(C(=O)O)CC(F)(F)C1 [Compound 17, (R)-3-amino-5,5-difluorocyclohex-1-ene-1-carboxylic acid hydrochloride]",–,–,–,–,0.00467,17.3,270 ± 70,17.3,2.83,No enzymatic activity was recovered,approximately 10 equiv,55,45,4.27,2.2,3.27,1.2,0.20 ± 0.01,2900 ± 400,–
"Cl.N[C@H]1CC(C(=O)O)=CC(F)(F)C1 [Compound 17a, (S)-5-amino-3,3-difluorocyclohex-1-ene-1-carboxylic acid hydrochloride]",–,–,–,–,0.0025,1.83,1200 ± 400,–,2,–,–,–,–,–,–,–,–,–,–,10
